The source of these data is patent US10392363B2, “Methods for treating protozoan infections” (Neoculi Pty Ltd., priority 2014, dated 2019).

Molecules are shown by their SMILES. Where only a bound is given, the exact number is not on record here.

Data set [1] concerns Trypanosoma cruzi (Tulahuen trypomastigotes expressing β-galactosidase, in L6 cells). Briefly: In vitro T. cruzi assay for determination of IC50. The data set is classed as cell-based. Particulars: 96 h incubation. On the procedure:
The T. cruzi assay uses Tulahuen trypomastigotes expressing the β-galactosidase gene. The parasites were maintained in vitro by serial passage in L6 cells. […] Extracellular trypomastigotes were then removed and NCL compounds were added in seven-point serial dilutions performed in triplicate. Benznidazole (Epichem Pty Ltd.) was included as a control. […] After 4-6 h, a colour change following catabolisation of the reagent by viable T. cruzi was observed and absorbance was read at 530 nm using a Dynex microplate reader. […] For each compound, % inhibition values were used to generate a standard curve from which the IC50 was calculated. Each assay was performed at least twice, and the average was used.

Data set [2] deals with Leishmania donovani promastigotes. Put plainly: L. donovani screening (Alamarblue). Format: cell-based. Particulars: for inhibition at 10 µM: 96 hrs, read-out: reduction of metabolic activity / inhibition of L. donovani; for L. donovani SI: GI50 of macrophages divided by IC50 of parasites. On the procedure:
L. donovani Screening. Procyclic promastigotes from exponentially growing cultures maintained in DME-L+ Bob additions were used for all assays. Compounds were initially screened for activity at 10 μM. Compounds were diluted in culture media to a […] in 96 well plates. Promastigotes were diluted to a density of ˜8×10^5 cells/ml then added to the assay plate resulting in a final cell density of 4×10^5 cells/ml. in 96 well plates. Cells were incubated for 96 hrs at 27° C. before the addition of Alamarblue (thermofisher). Fluorescence was read at excitation 530 nm and Emission 590 nm. […] Compounds were serially diluted in thirds, in a 96 well plate, in cell growth media so that concentrations ranged from 0.005 to 10 μM and promastigotes added to a final concentration of 1×10^6 cells/ml. Cells were incubated at 27° C. for 72 hours before the addition of alamar blue. Fluorescence was measured as above.

Data set [3] relates to Giardia duodenalis trophozoites. Put plainly: Resazurin reduction assay (Example 3). The data set is classed as cell-based. Particulars: 42 hours, then 6 hours with Alamarblue. On the procedure:
Giardia trophozoites were grown until confluent. The media was replaced with fresh media and they were cold shocked for 40 minutes (as above). Cells were diluted to a concentration of ˜500 000 cells/ml and 100 μl were added to each well of the assay plate (except media only control). The assay was incubated in an anaerobic environment (candle jar) for 42 hours at 37° C. […] After incubation the absorbance of each sample was read at 570 and 630 nm. The percent reduction of resazurin (Alamarblue™) was calculated and data was analysed with GraphPad Prism v6 software. Assay set-up: the assay was performed in 96 well plates in a total volume of 200 μl. 100 μl of NCL812 or NCL062 (concentration of 25.6 mg/ml in DMSO) or metronidazole (concentration 5 mg/ml in DMSO) stock was added to 9.9 ml of TYI-S-33 medium, then serially diluted 1:2 in the same medium. Cells were added as above.

Data set [4] concerns T. brucei procyclic stage. Put plainly: T. brucei screening (alamar blue). The data set is classed as cell-based, Trypanosoma brucei. On the procedure:
T. brucei screening. Procyclic promastigotes from exponentially growing cells maintained SDM-79 medium were used in all assays. Compounds were initially screened at 10 μM for activity. Compounds were diluted in culture media to a concentration of 20 μM and added to a 96 well plate, after addition of promastigotes (final concentration 4×10^5 cells/ml) compound concentration was 10 μM. Cells were incubated for 48 hrs at 27° C. before the addition of alamar blue and fluorescence measurement as described above. […] Compounds were serially diluted in thirds in culture media resulting in final concentrations ranging from 0.004-10 μM. Promastigotes were added at a final concentration of 4×10^5 cells/ml. Cells were incubated at 27° C. for 48 hours before addition of alamar blue. In addition promastigotes, at a concentration of 8×10^5 were exposed to NCL026 for 1.5 hours before removal of the drug via centrifugation at 5000 rpm for 7 minutes and resuspension of cells in culture media. Cells were incubated for 96 hours at 27° C. and observed daily for metabolic activity (alamar blue assay) and morphological changes. A control culture was exposed to DMSO instead of NCL026.
(The colour change of resazurin is a common sign of viable cells or microbes.)

A short description of data set [5]: Cell toxicity assay (WST-1). Format: cell-based, mouse. Particulars: mouse, RAW 264.7 macrophages, RAW 264.7, 24 hours, read-out: GI50 macrophage. On the procedure: Cell toxicity assays. Mouse macrophages (RAW 264.7) were grown in RPM11640 media supplemented with L-glutamine and 10% foetal calf serum. Cells were trypsanised when 80% confluent and subcultured every 3-4 days. For cytotoxicity assays cells were diluted to a final cell concentration of 2×10^4 cells/ml and 198 μl added to each well of a 96 well plate. Cells were incubated in a humidified incubator for 2 hours at 37° C. 5% CO2 before the addition of NCL compounds (2 μl/well, previously diluted in DMSO). Campothecin, triton X and DMSO only were used as controls. Cells were exposed to the compounds for 24 hours. The metabolic activity of the cells was determined using the WST-1 assay system (Roche Life Science). The supernatant was removed, 100 μl of PBS with 10% WST-1 was added to each well and incubated for 1 hr before reading absorbance at 450 nm. The selectivity index of the compounds was determined by dividing the IC50 of macrophages by the IC50 against parasites. IC50 was determined via graphpad prism software.

Where [6] appears, read: Trypanosoma cruzi, TULAHUEN, L6.

Regarding `O=C(N/N=C/c1cccc(C(F)(F)F)c1)N/N=C/c1cccc(C(F)(F)F)c1` [NCL011], the half-inhibitory concentration (IC50) in data set [1] (setting [6]) is above 11 µM.

On to `N=C(NN=Cc1ccccc1Cl)NN=Cc1ccccc1Cl` [NCL020], for which, in data set [1], the IC50 was 24 µM. This counts as double-digit micromolar.

`N=C(N/N=C/c1ccc(F)cc1)N/N=C/c1ccc(F)cc1` [NCL021] returned a 50% inhibitory concentration (IC50) in data set [1] (setting [6]) of 16 µM.

On to `N=C(N/N=C/c1cccc(F)c1)N/N=C/c1cccc(F)c1` [NCL023], for which half-maximal inhibition in data set [1] (setting [6]) (IC50) required 19 µM.

As to `N#Cc1ccccc1C=NNC(=N)NN=Cc1ccccc1C#N` [NCL025], in data set [1], inhibition was half-maximal at 20 µM (IC50).

Regarding `COc1ccc(C=NNC(=N)NN=Cc2ccc(OC)cc2)cc1` [NCL027], the midpoint of inhibition in data set [1], the IC50, lay at 14 µM.

Regarding `COc1cccc(/C=N/NC(=N)N/N=C/c2cccc(OC)c2)c1` [NCL029], in data set [1] (setting [6]), the midpoint of inhibition, the IC50, lay at 19 µM.

Take `N=C(N)N/N=C/c1ccc(Cl)cc1` [NCL030]: the 50% inhibitory concentration (IC50) in data set [1] (setting [6]) was 18 µM.

Molecule `N#Cc1ccccc1C=NNC(=N)N` [NCL032] gave an IC50 in data set [1] of 58 µM.

In turn, `N=C(N/N=C/c1ccc(C(F)(F)F)cc1)N/N=C/c1ccc(C(F)(F)F)cc1` [NCL035] came in with an IC50 in data set [1] (setting [6]) of 20 µM.

For `N=C(NN=Cc1ccccc1C(F)(F)F)NN=Cc1ccccc1C(F)(F)F` [NCL036], half-maximal inhibition in data set [1] (IC50) was put at 8.3 µM.

In turn, `N=C(NN=Cc1cccc(C(F)(F)F)c1)NN=Cc1cccc(C(F)(F)F)c1` [NCL037] registered a half-inhibitory concentration (IC50) in data set [1] of 16 µM.

The molecule `Cc1ccc(/C=N/NC(=N)N/N=C/c2ccc(C)cc2)cc1` [NCL038] showed an IC50 in data set [1] (setting [6]) of 16 µM. This lies in the double-digit micromolar range.

For `Cc1ccccc1/C=N/NC(=N)N/N=C/c1ccccc1C` [NCL039], in data set [1] (setting [6]), the IC50 amounted to 9.9 µM.

The molecule `Cc1cccc(/C=N/NC(=N)N/N=C/c2cccc(C)c2)c1` [NCL040] had an IC50 in data set [1] (setting [6]) of 16 µM.

For `N=C(N)N/N=C/c1ccc(C(F)(F)F)cc1` [NCL041], the inhibition at 10 µM in data set [2] (Leishmania donovani) worked out at 100%. Moreover, half-maximal inhibition in data set [1] (setting [6]) (IC50) was put at 14 µM.

For the molecule `N=C(N)N/N=C/c1cccc(C(F)(F)F)c1` [NCL043], it took 16 µM to reach half-maximal inhibition in data set [1] (setting [6]) (IC50).

For the molecule `Cc1ccc(/C=N/NC(=N)N)cc1` [NCL044], in data set [1] (setting [6]), 39 µM corresponded to half-maximal inhibition (IC50).

With `N=C(N)N/N=C/c1cccc(Cl)c1` [NCL052], half-maximal inhibition in data set [1] (setting [6]) (IC50) was put at 15 µM.

As to `N=C(N/N=C/c1cccc(Cl)c1)N/N=C/c1cccc(Cl)c1` [NCL054], the midpoint of inhibition in data set [1] (setting [6]), the IC50, lay at 19 µM.

Take `C/C(=N\NC(=N)N/N=C(\C)c1ccc(Cl)cc1)c1ccc(Cl)cc1.Cl` [NCL062]: the “metabolic activity of the trophozoites (percentage of reduction of resazurin)” value in data set [3] is “reduction in the metabolic activity”. Further, in data set [2] (Leishmania donovani), the inhibition at 10 µM is 100%. In addition, the “reduction of metabolic activity / inhibitory effect on T. brucei” value in data set [4] (10 μM, 48 hrs) is given as “greatest inhibitory effect”. The “T. brucei SI” value in data set [4] (GI50 of macrophages divided by IC50 of parasites) is 1.75. Further, in data set [4] (Trypanosoma brucei, 48 h), the IC50 is 4.04 ± 0.83 µM. In data set [5], the GI50 at 24 h amounted to 7.15 ± 1.27 µM.

`N=C(NN)N/N=C/c1ccc(Cl)cc1` [NCL072]: the 50% inhibitory concentration (IC50) in data set [1] (setting [6]) was found to be 46 µM.

Turning to `C/C(=N\NC(=N)NN)c1ccc(C(F)(F)F)cc1` [NCL073], the half-inhibitory concentration (IC50) in data set [1] (setting [6]) stood at 24 µM. This IC50 is about 1.9-fold lower than that of the molecule before.

In data set [1] (setting [6]), `N=C(N/N=C/c1ccc(Cl)cc1)N/N=C/c1ccc(Cl)cc1Cl` [NCL074] registered a 50% inhibitory concentration (IC50) of 33 µM.

Molecule `CC(=NNC(=N)NN=Cc1ccc(C(F)(F)F)cc1)c1ccc(C(F)(F)F)cc1` [NCL075] displayed an IC50 in data set [1] of 15 µM.

For the molecule `Cc1ccc(C=NNC(=N)NN=Cc2ccc(Cl)cc2)cc1` [NCL076], in data set [1], it took 19 µM to reach half-maximal inhibition (IC50).

In data set [1] (setting [6]), `N=C(N/N=C/c1ccc(Cl)cc1)N/N=C/c1ccc(C(F)(F)F)cc1F` [NCL078] gave a half-inhibitory concentration (IC50) above 10 µM.

For `N=C(N/N=C/c1ccc(F)cc1)N/N=C/c1ccc(Cl)cc1` [NCL079], in data set [1] (setting [6]), the half-maximal inhibitory concentration (IC50) is above 10 µM.

For the molecule `C/C(=N\NC(=N)N/N=C/c1ccc(Cl)cc1)c1ccc(C(F)(F)F)cc1` [NCL080], it took 7.8 µM to reach half-maximal inhibition in data set [1] (setting [6]) (IC50).

Turning to `C/C(=N\NC(=N)N/N=C/c1ccc(Cl)cc1)c1ccc(Cl)cc1` [NCL081], inhibition in data set [1] (setting [6]) was half-maximal at 20 µM (IC50).

In turn, `N=C(N/N=C/c1ccc(Cl)cc1)N/N=C/c1ccccc1Cl` [NCL082] registered an IC50 in data set [1] (setting [6]) of 22 µM.

The molecule `N=C(NN=Cc1ccc(Cl)cc1)NN=Cc1cccc(Cl)c1` [NCL083] had an IC50 in data set [1] of 16 µM.

In data set [1] (setting [6]), `N=C(N/N=C/c1ccc(Cl)cc1)N/N=C/c1ccc(Cl)cc1F` [NCL084] registered a half-inhibitory concentration (IC50) of 22 µM.

For the molecule `N#Cc1ccccc1C=NNC(=N)NN=Cc1ccc(Cl)cc1` [NCL085], the midpoint of inhibition in data set [1], the IC50, lay at 20 µM.

`N#Cc1cccc(/C=N/NC(=N)N/N=C/c2ccc(Cl)cc2)c1` [NCL086] came in with an IC50 in data set [1] (setting [6]) of 14 µM.

The molecule `N#Cc1ccc(C=NNC(=N)NN=Cc2ccc(Cl)cc2)cc1` [NCL087] registered a half-maximal inhibitory concentration (IC50) in data set [1] of 17 µM.

`N=C(N/N=C/c1ccc(Cl)cc1)N/N=C/c1ccccc1F` [NCL088] returned a concentration for half-maximal inhibition (IC50) in data set [1] (setting [6]) of 19 µM.

The molecule `C/C(=N\NC(=N)N/N=C(\C)c1ccc(C(C)(F)F)cc1)c1ccc(Cl)cc1` [NCL089] returned an IC50 in data set [1] (setting [6]) of 3 µM.

On to `CN(C)c1ccc(/C=N/NC(=N)N/N=C/c2ccc(N(C)C)cc2)cc1.Cl` [NCL113], for which the “L. donovani SI” value is reported as “highly selective” in data set [2] and 14 in data set [2] (listed as NCL 113). In addition, inhibition in data set [2] (Leishmania donovani, 72 h) was half-maximal at 0.92 ± 0.06 µM (IC50). In addition, in data set [5], the GI50 at 24 h came to 12.9 ± 3.49 µM.

For orientation: IC50 means the midpoint of a concentration-inhibition curve. A higher IC50 goes with lower potency. The GI50 is the concentration at which growth is held to half of that of the control.
